From patent US10793557B2, “Sting agonist compounds” (Merck Sharp & Dohme Corp., priority 2018, dated 2020)

How the values were obtained:
[1] = system: secretion of interferon-beta from THP1 cells; assay: IFN-β secretion in THP1 cell culture (5 h); format: cell-based; conditions: Homo sapiens, THP-1, 5 h, compound at 30 μM, 30 uM cGAMP = 100%, read-out: % Effect at 30 μM relative to 2′3′-cGAMP
Outline: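 Thawed THP1 cells (0.8×10^6/mL, RPMI with 0.5% FBS) exposed to compounds 1.5–30000 nM (0.3% DMSO) for 5 h at 37 °C. Supernatant IFN-β quantified by AlphaLISA. Percent effect normalised to 30 uM cGAMP and DMSO controls; EC50 from 4-parameter fit.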

full-length WT STING = molecular target: T1, full-length WT STING (Homo sapiens, UniProt Q86WV6, H232R); assay: 3H-cGAMP filtration binding assay (WT STING); conditions: for EC50: competition with tritiated cGAMP, WT STING membrane; for inhibition at 20 µM: at 20,000 nM compound
T1 construct: AviTag (after gg linker) (C); HRV3C cleavage site (after gs linker) (C); HIS8 (C); made in house; host or cells: Trichoplusia ni (Hi-Five) insect cells infected with baculovirus (virus generated and amplified in Sf21 cells); used as a washed membrane preparation
Outline: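 Competitive filtration binding of [3H]cGAMP (16 nM working stock) to T. ni membranes overexpressing full-length WT human STING, 60 min at RT in PBS. Bound radioactivity counted after GF/B filtration; 10-point 1:3 titration, EC50 from 4-parameter fit after control normalisation.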

full-length HAQ STING = molecular target: T2, full-length HAQ STING (Homo sapiens, UniProt Q86WV6, G230A/H232R/R293Q/R71H); assay: 3H-cGAMP filtration binding assay (HAQ STING); conditions: for EC50: competition with tritiated cGAMP, HAQ STING membrane
T2 construct: AviTag (after GG linker) (C); HRV3C cleavage site (after GS linker) (C); HIS8 (C); made in house; host or cells: Trichoplusia ni (Hi-Five) insect cells infected with baculovirus (virus generated and amplified in Sf21 cells); used as a washed membrane preparation
Outline: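 Hi-Five (T. ni) membranes overexpressing the STING variant (2.2 ug/ml working) preincubated with compound 60 min at RT in PBS, then [3H]cGAMP (8 nM working stock) added for 60 min at RT. Bound radioactivity captured on GF/B filters and counted by scintillation; EC50 from 4-parameter fit of control-normalized activity.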

T2 sequence (Q86WV6 with tags, fused parts or gaps R71H/G230A/H232R/R293Q): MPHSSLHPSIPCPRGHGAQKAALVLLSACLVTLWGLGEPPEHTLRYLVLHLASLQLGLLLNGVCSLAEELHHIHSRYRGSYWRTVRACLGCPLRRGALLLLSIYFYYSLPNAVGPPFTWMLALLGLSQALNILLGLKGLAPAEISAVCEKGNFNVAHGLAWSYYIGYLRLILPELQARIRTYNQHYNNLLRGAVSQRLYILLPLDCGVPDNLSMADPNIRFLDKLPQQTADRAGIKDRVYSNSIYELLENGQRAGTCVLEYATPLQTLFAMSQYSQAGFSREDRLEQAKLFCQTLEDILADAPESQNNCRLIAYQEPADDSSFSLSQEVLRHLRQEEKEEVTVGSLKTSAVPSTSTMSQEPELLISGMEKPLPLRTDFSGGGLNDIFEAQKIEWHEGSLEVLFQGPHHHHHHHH
T1 sequence (Q86WV6 with tags, fused parts or gaps H232R): as the sequence (Q86WV6 with tags, fused parts or gaps R71H/G230A/H232R/R293Q) above, with H71R, A230G, Q293R counted along it

| SMILES | activation at 30 µM [1] [%] | EC50 (full-length WT STING) [nM] | EC50 (full-length HAQ STING) [nM] | inhibition at 20 µM (full-length WT STING) [%] | inhibition at 20 µM (full-length HAQ STING; at 20,000 nM compound) [%] |
| --- | --- | --- | --- | --- | --- |
| COc1cc2sc(C(=O)C[C@H](C)C(=O)O)cc2cc1CCOc1cc2cc(C(=O)C[C@H](C)C(=O)O)sc2cc1OC [Example 42, (S)-4-(5-(2-(2-((S)-3-carboxybutanoyl)-6-methoxybenzo[b]thiophen-5-yl)ethoxy)-6-methoxybenzo[b]thiophen-2-yl)-2-methyl-4-oxobutanoic acid] | 67 | 12 | 6 |  |  |
| COc1cc2sc(C(=O)C[C@H](C)C(=O)O)cc2cc1OCCCOc1ccc2cc(C(=O)CCC(=O)O)sc2c1 [Example 43, (S)-4-(5-(3-((2-(3-carboxypropanoyl)benzo[b]thiophen-6-yl)oxy)propoxy)-6-methoxybenzo [b]thiophen-2-yl)-2-methyl-4-oxobutanoic acid] | 69 | 151 | 49 |  |  |
| COc1cc2sc(C(=O)CCC(=O)O)cc2cc1CCCOc1cc2cc(C(=O)CCC(=O)O)sc2cc1OC [Example 44, 4-(5-(3-((2-(3-carboxypropanoyl)-6-methoxybenzo[b]thiophen-5-yl)oxy)propyl)-6-methoxybenzo[b]thiophen-2-yl)-4-oxobutanoic acid] | 108 | 64 | 14 |  |  |
| COc1cc2cc(C(=O)C[C@H](C)C(=O)O)sc2cc1OCCCOc1ccc2cc(C(=O)CCC(=O)O)sc2c1 [Example 45, (S)-4-(6-(3-((2-(3-carboxypropanoyl)benzo[b]thiophen-6-yl)oxy)propoxy)-5-methoxybenzo[b]thiophen-2-yl)-2-methyl-4-oxobutanoic acid] | 8 | 14800 | 4330 |  |  |
| COc1cc2cc(C(=O)C[C@H](C)C(=O)O)sc2cc1OCCCOc1ccc2sc(C(=O)CCC(=O)O)cc2c1 [Example 46, (S)-4-(6-(3-((2-(3-carboxypropanoyl)benzo[b]thiophen-5-yl)oxy)propoxy)-5-methoxybenzo[b]thiophen-2-yl)-2-methyl-4-oxobutanoic acid] | 60 | 394 | 133 |  |  |
| COc1cc2cc(C(=O)C[C@H](C)C(=O)O)sc2cc1OCCCOc1cc2sc(C(=O)C[C@H](C)C(=O)O)cc2cc1OC [Example 47, (2S,2′S)-4,4′-((propane-1,3-diylbis(oxy))bis(5-methoxybenzo[b]thiophene-6,2-diyl))bis(2-methyl-4-oxobutanoic acid)] | 62 | 81 | 14 |  |  |
| COC(=O)[C@@H](C)CC(=O)c1cc2cc(OCCCOc3cc4sc(C(=O)C[C@H](C)C(=O)OC)cc4cc3OC)c(OC)cc2s1 [Example 48, methyl (S)-4-(6-methoxy-5-(3-((5-methoxy-2-((S)-4-methoxy-3-methyl-4-oxobutanoyl)benzo[b]thiophen-6-yl)oxy)propoxy)benzo[b]thiophen-2-yl)-2-methyl-4-oxobutanoate] | 22 |  | 12800 | 43 |  |
| COC(=O)[C@@H](C)CC(=O)c1cc2cc(OCCCOc3cc4cc(C(=O)C[C@H](C)C(=O)OC)sc4cc3OC)c(OC)cc2s1 [Example 49, dimethyl 4,4′-((propane-1,3-diylbis(oxy))bis(6-methoxybenzo[b]thiophene-5,2-diyl))(2S,2′S)-bis(2-methyl-4-oxobutanoate)] | 17 |  |  | 34 | 44 |
| COc1cc2sc(C(=O)C[C@H](C)C(=O)O)cc2c(F)c1OCCOc1c(OC)cc2sc(C(=O)C[C@H](C)C(=O)O)cc2c1F [Example 50, (2S,2′S)-4,4′-((ethane-1,2-diylbis(oxy))bis(4-fluoro-6-methoxybenzo[b]thiophene-5,2-diyl))bis(2-methyl-4-oxobutanoic acid)] | 44 | 1 | 1 |  |  |
| COc1cc2sc(C(=O)C[C@H](C)C(=O)O)cc2cc1OCCCOc1cc2sc(C(=O)C[C@H](C)C(=O)O)cc2cc1OC [Example 51] | 43 | 8 | 3 |  |  |
| COc1cc2sc(C(=O)C[C@H](C)C(=O)O)cc2cc1OCCCOc1cc2cc(C(=O)C[C@H](C)C(=O)O)sc2cc1OC [Example 52, (2S,2′S)-4,4′-((propane-1,3-diylbis(oxy))bis(6-methoxybenzo[b]thiophene-5,2-diyl))bis(2-methyl-4-oxobutanoic acid)] | 53 | 4 | 2 |  |  |
| COc1cc2cc(C(=O)C[C@H](C)C(=O)O)sc2cc1OCCOc1ccc2sc(C(=O)CCC(=O)O)cc2c1 [Example 53, (S)-4-(6-(2-((2-(3-carboxypropanoyl)benzo[b]thiophen-5-yl)oxy)ethoxy)-5-methoxybenzo[b]thiophen-2-yl)-2-methyl-4-oxobutanoic acid] | 23 | 713 | 146 |  |  |
| COc1cc2sc(C(=O)C[C@H](C)C(=O)O)cc2cc1OCCOc1ccc2sc(C(=O)CCC(=O)O)cc2c1 [Example 54, (S)-4-(5-(2-((2-(3-carboxypropanoyl)benzo[b]thiophen-5-yl)oxy)ethoxy)-6-methoxybenzo[b]thiophen-2-yl)-2-methyl-4-oxobutanoic acid] | 9 | 3080 | 804 |  |  |
| COc1cc2sc(C(=O)C[C@H](C)C(=O)O)cc2cc1OCCCOc1ccc2sc(C(=O)CCC(=O)O)cc2c1 [Example 55, (S)-4-(5-(3-((2-(3-carboxypropanoyl)benzo[b]thiophen-5-yl)oxy)propoxy)-6-methoxybenzo[b]thiophen-2-yl)-2-methyl-4-oxobutanoic acid] | 53 | 48 | 14 |  |  |
| COc1cc2sc(C(=O)C[C@H](C)C(=O)O)cc2cc1OCCOc1ccc2cc(C(=O)CCC(=O)O)sc2c1 [Example 56, (S)-4-(5-(2-((2-(3-carboxypropanoyl)benzo[b]thiophen-6-yl)oxy)ethoxy)-6-methoxybenzo[b]thiophen-2-yl)-2-methyl-4-oxobutanoic acid] | 30 | 3130 | 1070 |  |  |
| COc1cc2sc(C(=O)C[C@H](C)C(=O)O)cc2cc1OCCCOc1nc2cc(C(=O)C[C@H](C)C(=O)O)sc2cc1OC [Example 58, (S)-4-(5-(3-((2-((S)-3-carboxybutanoyl)-6-methoxybenzo[b]thiophen-5-yl)oxy)propoxy)-6-methoxythieno[3,2-b]pyridin-2-yl)-2-methyl-4-oxobutanoic acid] | 46 | 1 | 1 |  |  |
| COc1cc2sc(C(=O)C[C@H](C)C(=O)O)cc2nc1OCCCOc1c(OC)cc2sc(C(=O)CC(C)(C)C(=O)O)cc2c1F [Example 59, (S)-4-(5-(3-((2-(3-carboxybutanoyl)-6-methoxythieno[3,2-b]pyridin-5-yl)oxy)propoxy)-4-fluoro-6-methoxybenzo[b]thiophen-2-yl)-2,2-dimethyl-4-oxobutanoic acid] | 18 | 2 | 1 |  |  |
| COc1cc2sc(C(=O)C[C@H](C)C(=O)O)cc2cc1CCNc1cc2cc(C(=O)C[C@H](C)C(=O)O)sc2cc1OC [Example 60, (2S)-4-{5-[2-({2-[(3S)-3-carboxybutanoyl]-6-methoxy-1-benzothiophen-5-yl}amino)ethyl]-6-methoxy-1-benzothiophen-2-yl}-2-methyl-4-oxobutanoic acid] | 106 | 67 | 19 |  |  |
| COc1cc2sc(C(=O)C[C@H](C)C(=O)O)cc2cc1CCCNc1cc2cc(C(=O)C[C@H](C)C(=O)O)sc2cc1OC [Example 61, (S)-4-(5-(3-((2-((S)-3-carboxybutanoyl)-6-methoxybenzo[b]thiophen-5-yl)amino)propyl)-6-methoxybenzo[b]thiophen-2-yl)-2-methyl-4-oxobutanoic acid] | 62 | 327 | 33 |  |  |
| COc1cc2sc(C(=O)CCC(=O)O)cc2c(F)c1OCCCOc1c(OC)cc2sc(C(=O)CCC(=O)O)cc2c1F [Example 62, 4,4′-((propane-1,3-diylbis(oxy))bis(4-fluoro-6-methoxybenzo[b]thiophene-5,2-diyl))bis(4-oxobutanoic acid)] | 106 | 2 | 2 |  |  |
| COc1cc2sc(C(=O)CCC(=O)O)cc2c(F)c1OCCOc1c(OC)cc2sc(C(=O)C[C@H](C)C(=O)O)cc2c1F [Example 63, (S)-4-(5-(2-((2-(3-carboxypropanoyl)-4-fluoro-6-methoxybenzo[b]thiophen-5-yl)oxy)ethoxy)-4-fluoro-6-methoxybenzo[b]thiophen-2-yl)-2-methyl-4-oxobutanoic acid] | 62 | 4 | 1 |  |  |
